Values quoted from earlier work in patent publication US20090227575A1, “7H-PYRROLO[2,3-H]QUINAZOLINE COMPOUNDS, THEIR USE AS mTOR KINASE AND PI3 KINASE INHIBITORS, AND THEIR [sequence]” (Wyeth, priority 2008, published 2009).

Columns and labels:
[1] = test system: acute lymphoblastic leukemia xenograft; conditions: NOS/SCID xenograft mouse model of acute lymphoblastic leukemia; cited from earlier work
Human mTOR = Human mTOR (Homo sapiens, UniProt P42345); conditions: read-out: mTOR enzymes IC50; cited from earlier work
[2] = test system: human tumor xenograft models; conditions: chronic oral administration, 400 mg/kg; A549, PC-3, WiDr; cited from earlier work

SMILES	activity in xenograft mouse model [1]	IC50 (Human mTOR) [µM]	tumor growth inhibition [2]
CO[C@H]1C[C@@H]2CC[C@@H](C)[C@@](O)(O2)C(=O)C(=O)N2CCCC[C@H]2C(=O)O[C@H]([C@H](C)C[C@@H]2CC[C@@H](OC(=O)C(C)(CO)CO)[C@H](OC)C2)CC(=O)[C@H](C)/C=C(\C)[C@@H](O)[C@@H](OC)C(=O)[C@H](C)C[C@H](C)/C=C/C=C/C=C/1C [Torisel]	active	–	–
FC(F)c1nc2ccccc2n1-c1nc(N2CCOCC2)nc(N2CCOCC2)n1 [ZSTK474, 2-(2-difluoromethylbenzoimidazol-1-yl)-4,6-dimorpholino-1,3,5-triazine]	–	> 10	completely inhibited growth
